The nature of this data set: Osmolality of cyclodextrins as a function of concentration in pure water. The class given is physicochemical. The settings on record: ambient room temperature, various concentrations (FIG. 5). On the procedure: The osmolality of four cyclodextrins was determined as a function of concentration in pure water by the following procedure. Various amounts of cyclodextrins were dissolved in water at ambient room temperature.

Consider one substance from patent US20060258617A1, “DRUG DELIVERY TO THE BACK OF THE EYE” (Allergan, Inc., priority 2004, published 2006).

With “sulfobutylether-β-cyclodextrin [NaSBECD]”, the osmolality entry was “significantly higher osmolality than the other β-cyclodextrins tested”.
